The values that follow come from US11974995B1, “6′-(4-bromophenyl)-2′-methoxy-3,4′-bipyridine-3′-carbonitrile as an antioxidant compound” (KING FAISAL UNIVERSITY, priority 2023, dated 2024).

This experiment can be described thus: DPPH radical scavenging antioxidant test. To be noted: 517 nm; for Inhibition (radical scavenging inhibition): 0.2 mL DPPH (0.75 mM), compound 3 μM in ethanol, 30 minutes in the dark. On the procedure: The antioxidant activity of 6′-(4-bromophenyl)-2′-methoxy-3,4′-bipyridine-3′-carbonitrile was investigated by 2,2-diphenyl-1-picrylhydrazyl (DPPH) in vitro tests that employ vitamin C as the positive control.
The antioxidant properties of the 6′-(4-bromophenyl)-2′-methoxy-3,4′-bipyridine-3′-carbonitrile compound were studied by adding 0.2 mL DPPH (0.75 mM)) to 6′-(4-bromophenyl)-2′-methoxy-3,4′-bipyridine-3′-carbonitrile (3 μM) (4) in ethanol. After 30 minutes of incubation in the dark, the absorbance was read against a blank at 517 nm. Ascorbic acid (vitamin C) was used as standard antioxidants (positive control). A blank sample was prepared by 0.2 mL of DPPH in 3 mL ethanol. A negative control sample was run using ethanol instead of the sample. The radical scavenging inhibition was calculated using the following equation: […]
The antioxidant activity for the synthesized compound is listed in Table 1, using Vitamin C as a reference.

Consider `O=C1O[C@H]([C@@H](O)CO)C(O)=C1O` [vit c, Ascorbic acid, reference compound], for which the “Inhibition (radical scavenging inhibition)” value is on record as 74%.
Regarding `COc1nc(-c2ccc(Br)cc2)cc(-c2cccnc2)c1C#N` [Product 4, 6′-(4-bromophenyl)-2′-methoxy-3,4′-bipyridine-3′-carbonitrile], the “Inhibition (radical scavenging inhibition)” value turned out to be 50%. Also, the “antioxidant potential to vanish the DPPH radical colors, compared to vitamin C” value (DPPH in vitro test, vitamin C as positive control) is “high potential as an antioxidant compared to vitamin C”.
